Measured values: patent publication US20220355283A1, “DRUG, DRUG MANUFACTURING METHOD, AND WATER PURIFICATION METHOD” (priority 2019, published 2022)
Like-named read-outs stand apart in the source and are kept apart here.

Experiment: Lewis acidity measurement method (1): rate constant for the reaction between CoTPP and oxygen in the presence of a Lewis acid
Assay type: physicochemical
[1] = rate constant for reaction between CoTPP and oxygen in presence of the Lewis acid, MeCN, room temperature

With `CCCC[N+](CCCC)(CCCC)CCCC.F[P-](F)(F)(F)(F)F` [tetrabutylammonium hexafluorophosphate] the “kcat, M^−2 s^−1” value was over 0.1 M^−2 s^−1.
For benzalkonium chloride, the “kcat, M^−2 s^−1” value [1] was 0.18 M^−2 s^−1.
With benzethonium chloride the “kcat, M^−2 s^−1” value [1] was 0.24 M^−2 s^−1.
